Patent US20020192256A1, “Water miscible pesticide containing a synergistic cocktail of plant alkaloids” (priority 2000, published 2002)

System: small green leafhoppers
Assay: Insecticidal activity of pesticides on small green leafhoppers on tea trees (Table IX)
Type: in vivo
Parameters: 1d after Spray Efficacy (%) / 3d after Spray Efficacy (%) / 7d after Spray Efficacy (%): concentration or dose not given beside the values
Method: Ninety-eight kilograms of this pesticide was mixed with 2 Kg of imidacloprid with low toxicity to mammals. The mixture was tested for its insecticidal efficacy on small green leafhoppers on tea trees and compared with those of 40% dichlorophos emulsion and imidacloprid, a highly toxic pesticide, and the extract of Sophora alopecuroides as described in section 1) under “Extract of alkaloids from plants”.

SMILES | 1d after Spray Efficacy (%) | 1d after Spray Pests +/− Rate (%) | 3d after Spray Efficacy (%) | 3d after Spray Pests +/− Rate (%) | 7d after Spray Efficacy (%) | 7d after Spray Pests +/− Rate (%)
COP(=O)(OC)OC=C(Cl)Cl [Dichlorphos, dichlorophos] | 68.8 | −43.48 | 64.43 | −60.87 | 60.32 | −60.32
O=[N+]([O-])NC1=NCCN1Cc1ccc(Cl)nc1 [Imidacloprid, imidacloprid] | 67.8 | −48.47 | 61.3 | −60.3 | 60.7 | −60.7
